The values below come from patent US20190369122A1, “METABOLIC DISORDERS” (priority 2016, published 2019).

Structures are written as SMILES.

Series [1] in a line: Targeted measurements in portal and peripheral blood, first cohort. Particulars: human portal vs peripheral blood. The source says:
Two human cohorts were used in this study. The first cohort comprised five obese subjects with type 2 diabetes and ten BMI-matched subjects without type 2 diabetes who were undergoing laparoscopic Roux-and-Y gastric bypass surgery at the Slotervaart Hospital, Amsterdam, the Netherlands, see Table 2. Subjects were fasted overnight before the morning of the surgery, and a peripheral venous sample was taken just before the patient went into the operating room. Anthropometric measurements and a stool sample were also taken before surgery. During the surgery, a portal vein sample (vena puncture) was taken as previously described. Fasting glucose (by glucose meters, Roche Diagnostics), insulin (by an electrochemiluminescence immunoassay, Roche Modular System) and HbA1c (Menarini Diagnostic) were measured in the peripheral blood. All participants gave informed consent before the surgery and the protocol was approved by the Medical Ethical Committee of the Slotervaart Hospital, Amsterdam, the Netherlands.
The samples were then reconstituted with 5% HCl in n-butanol at 70° C. for 1 h, allowing n-butyl ester to be formed. […] Samples (5 μl) were injected onto a C18 BEH column (2.1×100 mm with 1.7 μm particles; Waters, Milford, Mass.) using a gradient consisting of water with 0.1% formic acid (A-phase) and acetonitrile with 0.1% formic acid (B-phase). […]

A further series has as its system mTORC1. The series can be described thus: mTOR modification in mTORC1 (Raptor immunoprecipitation), HEK293. It counts as cell-based, human. How it is done:
(§1) Snap-frozen liver and harvested cells were lysed in buffer containing 50 mM Tris-HCl (pH 7.4), 150 mM NaCl, 1 mM EDTA, 1 mM Na3VO4, 20 mM NaF, 10 mM glycerophosphate, 1 mM PMSF, 10% glycerol, 1% Triton X-100 and protease inhibitor cocktail. For immunoprecipitation, the cell lysates were obtained in 0.3% CHAPS-containing lysis buffer, sonicated and centrifuged at 20,000 g for 15 min at 4° C., and the supernatant was incubated with 20 μl of anti-FLAG beads (Sigma) at 4° C. for 4 h under gentle agitation.

The test system of series [2] is mTORC2. The series can be described thus: mTOR modification in mTORC2 (Rictor immunoprecipitation), HEK293. It counts as cell-based, human. As for the experimental part: as §1
Series [3] can be described thus: Circulating levels after intraperitoneal injection in GF mice. Particulars: 500 μg intraperitoneally twice per day for 3 days. It counts as in vivo, mouse. As for the experimental part: (§2) An intraperitoneal glucose tolerance test (using 1 g glucose per kg body weight) was then performed after a 4 h fast. Blood glucose levels were measured from tail blood using HemoCue201+analyzer (HemoCue, Angelholm, Sweden). Liver and plasma samples were collected after a 4 h fast. Mice were under isoflurane anesthesia and killed by cervical dislocation. Fresh liver was taken and snap-frozen in liquid nitrogen and stored at −80° C. until protein extraction.
(§3) The samples were then reconstituted with 5% HCl in n-butanol at 70° C. for 1 h, allowing n-butyl ester to be formed. […] Samples (5 μl) were injected onto a C18 BEH column (2.1×100 mm with 1.7 μm particles; Waters, Milford, Mass.) using a gradient consisting of water with 0.1% formic acid (A-phase) and acetonitrile with 0.1% formic acid (B-phase). Mass spectrometric analysis was performed using an Infinity 1290 quaternary UPLC pump (Agilent, Santa Clara, Calif.) coupled to a QTRAP 5500 (ABSciex, Concord, Canada). […] For the internal standards, the transitions 206/81 and 204/93 were used.

Series [4] has as its target T1, mTORC2 (Homo sapiens, UniProt P42345).
T1 construct: expressed in transfected cells; host or cells: HEK293
Kind of series: mTORC2 kinase activity assay. It counts as biochemical. How it is done:
HEK293 cells were transfected with 1 μg of HA Rictor and 0.5 μg of Flag mTOR for mTORC2 activity assay, lysed with 0.3% CHAPS-containing lysis buffer, sonicated and centrifuged at 20,000 g for 15 min at 4° C., and the supernatant was incubated with 2 μg of anti-HA antibody at 4° C. for overnight under gentle agitation. Immunocomplexes were then collected with protein A-Sepharose beads (RepliGen, Needham, Mass.) at 4° C. for 2 h and washed three times with 0.3% CHAPS-containing lysis buffer. […] Kinase reaction was started by adding 100 μM ATP for 15 min at 37° C. and stopped by adding 5× Laemmli buffer.

A further series deals with CONVR mice. The series can be described thus: Intraperitoneal glucose tolerance test in CONVR mice. It counts as in vivo, mouse. Particulars: 100 μg i.p. twice per day for 3 days. How it is done:
as §2

For series [5], the system named is HEK293 cells. The series can be described thus: Immunofluorescence of mTOR and LAMP2 in HEK293 cells. It counts as cell-based, human. Particulars: amino acid-deprived HEK293; 100 μM for 1 h. How it is done: Cells were grown on poly-L-lysine (Sigma) coated 4 well chamber slides, fixed with 4% paraformaldehyde for 15 min at 37° C., then washed with glycine-PBS and permeablized with 0.3% Triton X-100 for 10 min. After blocking with 3% BSA in PBS, cells were stained for mTOR and LAMP2. Images were obtained by confocal microscope.

The subject of series [6] is HEK293 cells. Kind of series: siRNA knock-down in HEK293 cells, ImP-induced signaling. In kind it is cell-based, human. Particulars: HEK293 transfected with control or p38δ/p38γ siRNA. How it is done: HEK293 cells (ATCC CRL-1573) were grown and maintained in high-glucose (4.5 g/l glucose) DMEM with 10% (v/v) FBS. All HEK293 cell experiments were performed in serum-starved and amino acid-deprived conditions. 24 h after transfection (with plasmids or siRNA as indicated), HEK293 cells cultured in poly-L-lysine-coated 60 mm dishes were rinsed twice with DMEM without FBS and incubated in serum-free DMEM for 18 h. HEK293 cells were then washed once with EBSS and incubated in EBSS for 1 h.
FLAG mTOR and HA Raptor were kindly provided by Dr Sung Ho Ryu (Pohang University of Science and Technology, Pohang, South Korea). Myc-Rag GTPases constructs were gifts from Dr Do-Hyung Kim (University of Minnesota, Minn., USA). AIIStars negative control siRNA, p38δ siRNA1 (Hs_MAPK13_5 targeting […] (SEQ ID NO: 15)), p38δ siRNA2 (Hs_MAPK13_6 targeting […] (SEQ ID NO: 16)), p38γ siRNA1 (Hs_MAPK12_5 targeting […] (SEQ ID NO: 17)), p38γ siRNA2 (Hs_MAPK12_8 targeting […] (SEQ ID NO: 18)), p38α siRNA (Hs_MAPK14_5 targeting […] (SEQ ID NO: 21)), p38β siRNA (Hs_MAPK11_6 targeting […] (SEQ ID NO: 22)), S6K1 siRNA (Hs_RPS6KB1_5 targeting […] (SEQ ID NO: 23)) and Raptor siRNA (Hs_RPTOR_1 targeting […] (SEQ ID NO: 24)) (Qiagen, Valencia, Calif.) were transfected into HEK293 cells using Lipofectamin 2000 according to the manufacturer's instructions.

The test system of series [7] is insulin signaling components. Kind of series: IRS and Akt in liver, muscle and WAT of CONVR mice. In kind it is in vivo, mouse. How it is done: as §2, §1
Series [8] in a line: Plasma levels after intraperitoneal injection in CONVR mice. In kind it is in vivo, mouse. Particulars: 100 μg i.p. twice per day for 3 days. How it is done:
as §2, §3

`O=C(O)CCc1cnc[nH]1` [imidazole propionate]: the “metabolism inferred from similar portal and peripheral blood concentrations” value in [1] was “not metabolized”. Further, the “modulation of mTORC1” value in the series with mTORC1 (HEK293, 2 h incubation) is given as “specifically modulated”. In the series on mTORC1 (Raptor immunoprecipitation), the “mTOR S2448 phosphorylation in mTORC1” value was “strongly induced” and the “mTOR S2481 phosphorylation in mTORC1” value is listed as “not”. In the series on mTORC2 [2] (HEK293, 2 h incubation), the “modulation of mTORC2” value is “not”. In addition, the “mTOR S2448 or S2481 phosphorylation in mTORC2” value in the series with mTORC2 [2] (Rictor immunoprecipitation) was “unaffected”. Besides, in series [3], the “circulating concentrations of imidazole propionate” value is given as “around 13 nM” and the “effect on urocanate levels” value was “without affecting”. In addition, on mTORC2 [4], the “in vitro mTORC2 kinase activity towards Akt” value is listed as “not altered”. Besides, the glucose tolerance entry in the series on CONVR mice was “impaired glucose tolerance”. Also, the “lysosomal localization of mTOR” value in the series with HEK293 cells [5] was “induced”. Also, in the series with HEK293 cells [6], the DEPTOR level result is recorded as “not affected”. Further, the “basal Akt S473 phosphorylation in liver, muscle and WAT” value in series [7] (3-day injection vs vehicle) is on record as “higher”. Further, the “IRS levels in liver, muscle or WAT” value in series [7] (3-day injections) is reported as “did not reduce”. In series [8], the “effect on urocanate levels” value was “without affecting” and the “increase of circulating concentrations of imidazole propionate” value is listed as “around 4 fold”.
